# Measured values taken from patent US11045447B2, “Methods for inducing synaptogenesis with synaptic growth factor activating compounds” ([…], INC., priority 2018, dated 2021).
# Values joined by “and” are separate entries in the source; they are usually repeats but may differ in a detail not shown here. Equal values may be shown once. “Also recorded” adds a separate entry of the source.
# How the values were obtained:
# Type in all cases: in vivo, human
# [1] = system: patients with advanced Alzheimer's disease; assay: Severe Impairment Battery (SIB) in double-blind, randomized, placebo-controlled trial; design: key to SIB Total LS Mean change from baseline (MMRM) / SIB Total LS Mean change (MMRM with memantine covariate) / SIB Delta from baseline, Mean (unadjusted): change from baseline in SIB total score; low scores = greater impairment; settings: for SIB Total Difference vs. Placebo (MMRM) / SIB Total LS Mean change from baseline (MMRM): 20 μg iv; for SIB Delta from baseline, Mean (unadjusted): Low dose (20)
# Description: In a double-blind, randomized, placebo-controlled trial, bryostatin was administered by intravenous infusion (˜45 minutes) to patients with advanced Alzheimer's disease for 12 weeks at doses of 20 or 40 μg. Randomization was stratified at baseline by severe (MMSE-2, 4-9) and moderate (MMSE-2, 10-15) dementia, wherein MMSE-2 refers to Mini-Mental State Examination, version 2. The MMSE or Folstein test is a 30-point questionnaire that is used extensively in clinical and research settings to measure cognitive impairment. Low scores indicate greater impairment. Version 2 of the MMSE was published in 2010, expanding the original questionnaire's usefulness in populations with milder forms of cognitive impairment. […] Importantly, this cognitive improvement persisted and increased 30 days after all bryostatin dosing had been completed.
# (§1) Adults aged 55-85 with cognitive deficits present for at least 2 years, MMSE-2 of 4-15, inclusive, and a diagnosis of Alzheimer's dementia were randomly assigned to receive blinded intravenous infusions of bryostatin 24 μg or matching placebo at weeks 0 and 1. The 24 μg and 48 μg doses during the first two weeks of the 20 and 40 μg protocols respectively were considered to be “loading” doses thought to be beneficial from prior experience with Compassionate Use trial patients. Nelson et al., Alzheimers Dis. 2017 58: 521-535. In one arm, the two 24 μg doses were followed by 20 μg doses at weeks 5, 7, 9 and 11 with the Severe Impairment Battery (SIB) measured at baseline and weeks 5, 9, 13, and 15. In a second arm, the two 48 μg doses at weeks 0 and 1 were followed by 40 μg doses at weeks 5, 7, 9, and 11 with the SIB measured at baseline and weeks 5, 9, 13, and 15. The subjects were stratified by MMSE-2 in two strata: Stratum 1 (4-9) and Stratum 2 (10-15). The first primary endpoint was safety and tolerability, assessed by treatment emergent adverse events (TEAEs) with a sample size of 150 subjects randomized 1:1:1. Although efficacy was the secondary measure, the primary efficacy endpoint was SIB improvement at week 13 evaluated using a mixed model for repeated measures. A secondary efficacy endpoint was ADCS-ADL Sev. The primary safety population included all subjects who received at least 1 dose of study drug, and efficacy was evaluated in a modified intent to treat (mITT) population that received at least 1 dose of study drug and had at least one treatment evaluation. Efficacy was evaluated both as a primary end-point in the modified intent-to-treat (mITT) population and also as a primary end point in a Completers population that included all patients that completed the entire protocols as described above.
# The SIB efficacy measurement at 30 days (week 15) post dosing—after all dosing had been completed (last dose administered at week 11)—was a pre-specified exploratory endpoint. Week 15 results were only included for subjects who were not re-randomized. The mixed model assumes missing at random, but order of enrollment in the trial was not random. Since order of enrollment was not random, the assumption of missing at random is not met. For this reason, only including week 15 for those who were not re-randomized is an appropriate way to estimate week 15 results, but not an appropriate way to estimate results at the earlier visits. For this reason, estimates up through week 13 are from a mixed model that only included data through week 13 and the week 15 estimates are from a separate model. Results were generated using a mixed model with repeated measures predicting change from baseline in SIB Total Score as the response variable and using baseline score, baseline MMSE strata, treatment, visit (categorical), and visit (treatment) as predictors. […]
# [2] = system: patients with advanced Alzheimer's disease; assay: ADCS-ADL-SIV (secondary efficacy endpoint) in the same trial
# Description: as §1
# [3] = system: patients with advanced Alzheimer's disease; assay: Safety and tolerability (treatment emergent adverse events) in the same trial; settings: 40 μg iv, 12 weeks
# Description: Adults aged 55-85 with cognitive deficits present for at least 2 years, MMSE-2 of 4-15, inclusive, and a diagnosis of Alzheimer's dementia were randomly assigned to receive blinded intravenous infusions of bryostatin 24 μg or matching placebo at weeks 0 and 1. The 24 μg and 48 μg doses during the first two weeks of the 20 and 40 μg protocols respectively were considered to be “loading” doses thought to be beneficial from prior experience with Compassionate Use trial patients. Nelson et al., Alzheimers Dis. 2017 58: 521-535. In one arm, the two 24 μg doses were followed by 20 μg doses at weeks 5, 7, 9 and 11 with the Severe Impairment Battery (SIB) measured at baseline and weeks 5, 9, 13, and 15. In a second arm, the two 48 μg doses at weeks 0 and 1 were followed by 40 μg doses at weeks 5, 7, 9, and 11 with the SIB measured at baseline and weeks 5, 9, 13, and 15. The subjects were stratified by MMSE-2 in two strata: Stratum 1 (4-9) and Stratum 2 (10-15). The first primary endpoint was safety and tolerability, assessed by treatment emergent adverse events (TEAEs) with a sample size of 150 subjects randomized 1:1:1. Although efficacy was the secondary measure, the primary efficacy endpoint was SIB improvement at week 13 evaluated using a mixed model for repeated measures. A secondary efficacy endpoint was ADCS-ADL Sev. […]
# [4] = Week 15 (30 days post dosing), Completer
# [5] = Week 15 (30 days post dosing), FAS
# [6] = 20 μg, Week 5, Completer, With Memantine
# [7] = 20 μg, Week 5, Completer, Without Memantine
# [8] = 20 μg, Week 5, FAS, With Memantine
# [9] = 20 μg, Week 5, FAS, Without Memantine
# [10] = 20 μg, Week 9, Completer, With Memantine
# [11] = 20 μg, Week 9, Completer, Without Memantine
# [12] = 20 μg, Week 9, FAS, With Memantine
# [13] = 20 μg, Week 9, FAS, Without Memantine
# [14] = 20 μg, Week 13, Completer, With Memantine
# [15] = 20 μg, Week 13, Completer, Without Memantine
# [16] = 20 μg, Week 13, FAS, With Memantine
# [17] = 20 μg, Week 13, FAS, Without Memantine
# [18] = 20 μg, Week 15, Completer, With Memantine
# [19] = 20 μg, Week 15, Completer, Without Memantine
# [20] = 20 μg, Week 15, FAS, With Memantine
# [21] = 20 μg, Week 15, FAS, Without Memantine
smiles,measurement,setting,value
"CCC/C=C/C=C/C(=O)O[C@H]1/C(=C/C(=O)OC)C[C@H]2C[C@H]([C@@H](C)O)OC(=O)C[C@H](O)C[C@@H]3C[C@H](OC(C)=O)C(C)(C)[C@](O)(C[C@@H]4C/C(=C/C(=O)OC)C[C@H](/C=C/C(C)(C)[C@]1(O)O2)O4)O3 [Bryostatin, bryostatin-1]",SIB versus baseline and placebo (in words),"[1]; 20 μg dose, throughout the 13-week trial",sustained improvement in SIB
same,SIB Total Difference vs. Placebo (MMRM),"[1]; Week 5, Completer",4.00
same,SIB Total LS Mean change from baseline (MMRM),"[1]; Week 5, Completer",1.67
same,SIB Total Difference vs. Placebo (MMRM),"[1]; Week 5, FAS",2.96
same,SIB Total LS Mean change from baseline (MMRM),"[1]; Week 5, FAS",1.18
same,SIB Total Difference vs. Placebo (MMRM),"[1]; Week 9, Completer",1.85
same,SIB Total LS Mean change from baseline (MMRM),"[1]; Week 9, Completer",1.28
same,SIB Total Difference vs. Placebo (MMRM),"[1]; Week 9, FAS",1.03
same,SIB Total LS Mean change from baseline (MMRM),"[1]; Week 9, FAS",0.94
same,SIB Total Difference vs. Placebo (MMRM),"[1]; Week 13, Completer",2.63
same,SIB Total LS Mean change from baseline (MMRM),"[1]; Week 13, Completer",1.51
same,SIB Total Difference vs. Placebo (MMRM),"[1]; Week 13, Completer, listed as bryostatin",2.6
same,SIB Total Difference vs. Placebo (MMRM),"[1]; Week 13, FAS",1.94
same,SIB Total LS Mean change from baseline (MMRM),"[1]; Week 13, FAS",1.16
same,SIB Total Difference vs. Placebo (MMRM),[1]; [4],4.09
same,SIB Total LS Mean change from baseline (MMRM),[1]; [4],1.96
same,SIB Total Difference vs. Placebo (MMRM),"[1]; Week 15 (30 days post dosing), Completer, listed as bryostatin",4.0 and 4.09
same,SIB Total Difference vs. Placebo (MMRM),[1]; [5],3.59
same,SIB Total LS Mean change from baseline (MMRM),[1]; [5],1.77
same,SIB Total Difference vs. Placebo (MMRM with memantine covariate),[1]; [6],2.94
same,SIB Total LS Mean change (MMRM with memantine covariate),[1]; [6],0.61
same,SIB Total Difference vs. Placebo (MMRM with memantine covariate),[1]; [7],5.38
same,SIB Total LS Mean change (MMRM with memantine covariate),[1]; [7],3.22
same,SIB Total Difference vs. Placebo (MMRM with memantine covariate),[1]; [8],1.96
same,SIB Total LS Mean change (MMRM with memantine covariate),[1]; [8],0.26
same,SIB Total Difference vs. Placebo (MMRM with memantine covariate),[1]; [9],4.48
same,SIB Total LS Mean change (MMRM with memantine covariate),[1]; [9],2.74
same,SIB Total Difference vs. Placebo (MMRM with memantine covariate),[1]; [10],0.90
same,SIB Total LS Mean change (MMRM with memantine covariate),[1]; [10],−0.16
same,SIB Total Difference vs. Placebo (MMRM with memantine covariate),[1]; [11],2.66
same,SIB Total LS Mean change (MMRM with memantine covariate),[1]; [11],3.34
same,SIB Total Difference vs. Placebo (MMRM with memantine covariate),[1]; [12],0.09
same,SIB Total LS Mean change (MMRM with memantine covariate),[1]; [12],−0.33
same,SIB Total Difference vs. Placebo (MMRM with memantine covariate),[1]; [13],2.08
same,SIB Total LS Mean change (MMRM with memantine covariate),[1]; [13],2.95
same,SIB Total Difference vs. Placebo (MMRM with memantine covariate),[1]; [14],0.56
same,SIB Total LS Mean change (MMRM with memantine covariate),[1]; [14],−0.39
same,SIB Total Difference vs. Placebo (MMRM with memantine covariate),[1]; [15],5.53
same,SIB Total LS Mean change (MMRM with memantine covariate),[1]; [15],4.22
same,SIB Total Difference vs. Placebo (MMRM with memantine covariate),[1]; [16],−0.14
same,SIB Total LS Mean change (MMRM with memantine covariate),[1]; [16],−0.60
same,SIB Total Difference vs. Placebo (MMRM with memantine covariate),[1]; [17],5.11
same,SIB Total LS Mean change (MMRM with memantine covariate),[1]; [17],3.83
same,SIB Total Difference vs. Placebo (MMRM with memantine covariate),[1]; [18],1.45
same,SIB Total LS Mean change (MMRM with memantine covariate),[1]; [18],−0.71
same,SIB Total Difference vs. Placebo (MMRM with memantine covariate),[1]; [19],6.36
same,SIB Total LS Mean change (MMRM with memantine covariate),[1]; [19],6.24
same,SIB Total Difference vs. Placebo (MMRM with memantine covariate),[1]; [20],0.79
same,SIB Total LS Mean change (MMRM with memantine covariate),[1]; [20],−0.83
same,SIB Total Difference vs. Placebo (MMRM with memantine covariate),[1]; [21],5.93
same,SIB Total LS Mean change (MMRM with memantine covariate),[1]; [21],5.88
same,"Mean slope of SIB over time, Weighted Slope","[1]; 20 μg, weighted by number of non-zero SIB scores, second column group (memantine exposed, stratum not given)",−0.099
same,SIB versus baseline and placebo (in words),[1]; 40 μg dose,lack of efficacy; also recorded: no SIB improvement
same,"SIB Delta from baseline, Mean (unadjusted)","[1]; Ave of Week 13 and 15, Memantine Exposed Patients, FAS",−0.727
same,"SIB Delta from baseline, Mean (unadjusted)","[1]; Ave of Week 13 and 15, Memantine Treatment-Naïve Patients, FAS",5.406
same,"SIB Delta from baseline, Mean (unadjusted)","[1]; Week 5, Memantine Exposed Patients, FAS",0.077
same,"SIB Delta from baseline, Mean (unadjusted)","[1]; Week 5, Memantine Treatment-Naïve Patients, FAS",3.444
same,"SIB Delta from baseline, Mean (unadjusted)","[1]; Week 9, Memantine Exposed Patients, FAS",−0.087
same,"SIB Delta from baseline, Mean (unadjusted)","[1]; Week 9, Memantine Treatment-Naïve Patients, FAS",3.467
same,"SIB Delta from baseline, Mean (unadjusted)","[1]; Week 13, Memantine Exposed Patients, FAS",−0.545
same,"SIB Delta from baseline, Mean (unadjusted)","[1]; Week 13, Memantine Treatment-Naïve Patients, FAS",4.500
same,"Treatment effect on SIB at 13/15 weeks from baseline (ANCOVA coefficient, 20 μg vs placebo)","[1]; Memantine Exposed, adjusted for Base SIB, MMSE-2",−0.620
same,"Treatment effect on SIB at 13/15 weeks from baseline (ANCOVA coefficient, 20 μg vs placebo)","[1]; Memantine Exposed, adjusted for Baseline SIB",−0.531
same,"Treatment effect on SIB at 13/15 weeks from baseline (ANCOVA coefficient, 20 μg vs placebo)","[1]; Memantine Naïve, adjusted for Base SIB, MMSE-2",5.923
same,"Treatment effect on SIB at 13/15 weeks from baseline (ANCOVA coefficient, 20 μg vs placebo)","[1]; Memantine Naïve, adjusted for Baseline SIB",5.426
same,SIB improvement (in words),"[1]; patients on memantine, week 13 or 15",no SIB improvement
same,"ADCS-ADL, subgroups with and without memantine as background SOC therapy (in words)",[2]; 20 μg,not significantly different above placebo
same,ADCS-ADL difference from placebo,"[2]; 20 μg, completers group",1.6
same,ADCS-ADL difference from placebo,"[2]; 20 μg, mITT group",1.4
same,ADCS-ADL efficacy (in words),[2]; 40 μg dose,significant for the 20 μg but not the 40 μg dose
same,Safety results,[3],more adverse events
